Source: patent US4524070A, “Aminated derivatives of pyridazine substituted in 6 position by a heterocycle or an alicycle and compositions, said derivatives being active on the central nervous system” (Sanofi, priority 1983, dated 1985)

Legend:
[1] = test system: ptosis induced by reserpine; assay: Antagonism of ptosis induced by reserpine; type: in vivo, mouse (female CDI Charles River); details: Mus musculus, ip, simultaneous with reserpine 2 mg/kg i.v.; read 1 hour after; batches of 10 mice
Protocol: Antagonism of ptosis induced by reserpine This test described by GOURET (Journal de Pharmacologie, Paris, 1973, 4 (1), 105-128) was carried out on the female CDI (Charles River) mouse weighing 20±1 g. Reserpine induces a ptosis 1 hour after its intravenous administration; certain antidepressants oppose this ptosis. The following protocol was chosen. The substances to be studied were administered i.p. The reserpine was administered simultaneously by the intravenous route at the dose of 2 mg/kg. 1 hour after administration of reserpine, the number of animals not presenting ptosis was noted. This test was carried out on batches of 10 mice and the percentage of animals not presenting ptosis was determined. The results are expressed in effective dose 50 (ED50) or dose preventing ptosis in 50% of the animals treated.

[2] = target: T1, monoamine oxydase A (Rattus norvegicus, UniProt P21396); assay: Measurement of the MAO A activity in vitro; type: biochemical; details: rat striatum, 14C 5-hydroxytryptamine 480 μM, pH 7.40, 10 minutes
T1 construct: using the striatum of rate as source of enzyme; from tissue; host or cells: rat striatum homogenate
T1 sequence (P21396 1-526): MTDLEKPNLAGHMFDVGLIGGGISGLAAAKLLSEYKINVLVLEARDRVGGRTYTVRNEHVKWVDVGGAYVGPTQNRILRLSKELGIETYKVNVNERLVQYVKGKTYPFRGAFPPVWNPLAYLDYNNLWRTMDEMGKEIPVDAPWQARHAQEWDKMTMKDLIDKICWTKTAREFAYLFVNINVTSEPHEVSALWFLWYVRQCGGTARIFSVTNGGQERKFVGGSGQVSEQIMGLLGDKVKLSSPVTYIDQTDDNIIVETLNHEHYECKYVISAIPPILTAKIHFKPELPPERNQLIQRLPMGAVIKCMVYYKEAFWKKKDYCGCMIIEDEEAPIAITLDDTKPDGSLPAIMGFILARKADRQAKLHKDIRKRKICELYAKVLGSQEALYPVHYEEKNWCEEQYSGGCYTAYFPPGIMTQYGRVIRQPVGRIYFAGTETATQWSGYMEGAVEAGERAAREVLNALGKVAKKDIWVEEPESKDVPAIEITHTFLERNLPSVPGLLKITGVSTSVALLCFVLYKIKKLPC
Protocol: Measurement of the MAO A activity in vitro
After dissection, the tissues are homogenized in 16 volumes (weight per volume) of iced phosphate buffer (0.1M, pH=7.40). […] The acid metabolites are extracted in 7 ml of a toluene/ethyl acetate (1:1, vol/vol) mixture then counted by liquid scintillation. The concentration of the product tested which inhibits the control activity by 50% (I.C.50) is determined graphically.

[3] = target: cholinergic receptors of muscarinic type; type: binding; details: rat cerebra without cerebellum, 0.05 nM QNB (^3 H), 25° C., 1 hour, pH 7.4; read-out: Bond with QNB (^3 H) IC50
[4] = test system: central serotoninergic transmission; assay: Potentialization of the head twitches induced by 5-hydroxytryptophane (5-HTP test); type: in vivo, mouse (female CDI Charles River); details: 1 hour before 5-hydroxytryptophane 200 mg/kg i.p., % with respect to control mice
Protocol: Potentialization of the head twitches induced by 5-hydroxytryptophane
The 5-hydroxytryptophane, precursor of the 5-hydroxytryptamine, induces in the mouse typical behaviour characterized by sudden head twitches.
At time zero, the product to be studied is administered by the intraperitoneal route then, 1 hour afterwards, a single dose (200 mg/kg) of 1-5-hydroxytryptophane in suspension in distilled water is in turn administered by the same route. Each animal (female CDI Charles River mouse weighing from 22 to 24 g) is immediately placed in a cylindrical glass beaker. The number of head twitches is counted for 20 minutes.
For each dose of the product to be tested, batches of 10 animals are experimented on, in comparison with a control batch which receives only the vehicle.
The results are expressed in % with respect to the average score obtained in the control mice.

[5] = test system: dopaminergic activity; assay: Rotations test: behaviour of rotation after unilateral lesion of the striatum (dopaminergic activity); type: in vivo, mouse (female Charles River CDI); details: 1 hour after administration, counted for 2 minutes
Protocol: This was studied by analysis of the behaviour of rotation in the mouse after unilateral lesion of the striatum (P. Protais et al., J. Pharmacol., 1976, 7, 251).
Female Charles River CDI mice weighing from 20 to 24 g were previously subjected to a unilateral lesion of the striatum by stereotaxic injection of 6-hydroxydopamine at the rate of 8 mcg per animal. One week after this operation, the products to be studied were administered by the intraperitoneal route to groups of 7 mice. 1 hour after administration of the product, the number of rotations is determined for a period of 2 minutes. The rotations ispilateral with respect to the lesion are counted positively and the contralateral rotations are counted negatively.
The algebraic sum of the rotations for a group of treated animals is compared with that of the group of control animals having received only the vehicle (physiological serum).
The results are expressed in % variation of the rotations of the treated animals with respect to the control animals.

[6] = dose 10 mg/kg i.p., result in words

| SMILES | ED50 [1] [mg/kg] | MAO A Inhibition IC50 [2] [mg/kg] | IC50 [3] [µM] | 5-HTP test % variation ([4]; dose 8 mg/kg i.p., **p 0.01) [%] | Rotations test % variation [5, 6] | 5-HTP test % variation ([4]; dose 7.5 mg/kg i.p., *p 0.05) [%] | 5-HTP test % variation ([4]; dose 10 mg/kg i.p., *p 0.05) [%] | Rotations test % variation ([5]; dose 0.5 mg/kg i.p., vs control animals, **p 0.01) [%] |
| --- | --- | --- | --- | --- | --- | --- | --- | --- |
| Cc1cc(-c2cccs2)nnc1NCCN1CCOCC1.Cl.Cl [CM 30387, 3-morpholinoethylamino-4-methyl-6-(2-thienyl)pyridazine, dihydrochloride] | 4.8 | 10 | 24 | 632 | Inactive |  |  |  |
| Cc1cc(-c2ccsc2)nnc1NCCN1CCOCC1.Cl.Cl [CM 30388, 3-morpholinoethylamino-4-methyl-6-(3-thienyl)-pyridazine, dihydrochloride] | 10.3 | 7.8 | 18 | 647 | Inactive |  |  |  |
| Cc1cc(C2CCCCC2)nnc1NCCN1CCOCC1.Cl.Cl [CM 30390, 3-morpholinoethylamino-4-methyl-6-cyclohexyl-pyridazine; dihydrochloride] | 4.5 |  | 14 |  | Inactive | 219 |  |  |
| Cc1cc(-c2ccccc2)nnc1NCCN1CCOCC1 [Minaprine, reference compound] | 5 | 16 | 100 |  |  |  | 257 | -79 |
